The values that follow come from patent publication US4879370A, “Glutathione delivery system” (Cornell Research Foundation, Inc., priority 1985, dated 1989).

Test [1] deals with mice treated with lethal dose of acetaminophen. In words: Survival of starved mice after lethal dose of acetaminophen (Example 8). It counts as in vivo. The settings on record: acetaminophen 5 mmol/kg i.p., test compound 10 mmol/kg one hour later, 15 mice. The text has this: Starved mice were intraperitoneally treated with 5 mmol/kg (lethal dose) of acetaminophen and, one hour later, with 10 mmol/kg of the test compound.

Test [2] deals with GSH level in the liver and in the kidney. As to the kind of experiment: GSH level in liver and kidney of starved mice, time course (Example 6). Format: in vivo. Particulars: mice starved 24 hours, 10 mmol/kg i.p., 2 to 3 hours after the administration. On the procedure:
The test compound was dissolved in sterile water to give a test solution. Groups of 3 mice, each having a body weight of 20 to 25 g, were starved over a period of 24 hours and treated intraperitoneally with a dose of 10 mmol/kg of the test compound. Mice were dissected by every two hours, and the liver and kidney were taken out. GSH analysis was performed on each of the organs.

Test [3] concerns glutathione levels of the liver and kidney. As to the kind of experiment: Liver and kidney glutathione levels of fasted mice given glutathione ester or glutathione (Example 1, Comparative Example 1). It counts as in vivo. The procedure: A solution of the glutathione ester was prepared in aseptic water. […] At intervals of 2 hours, as shown in FIGS. 1(a) and (b), the animals were decapitated and the liver and kidney tissues were removed and analyzed for glutathione. Using groups of 3 mice each, values are given as means±S.D.

For test [4] the test system is unchanged. As to the kind of experiment: Liver and kidney glutathione levels of mice pretreated with buthionine sulfoximine (Example 2). It counts as in vivo. Particulars: 2 mmol/kg buthionine sulfoximine. The text has this:
Controls were again given saline, with tissue levels of GSH being determined at the indicated intervals. Values are means±S.D., using groups of 3 mice each.

Test [5] concerns mice given a lethal dose of acetaminophen. Particulars: acetaminophen 5 mmole per kilogram, ester 10 mmole per kilogram 1 hour later, 15 mice.
Setting [6] is: mice fasted 24 hours, intraperitoneal 10 millimoles per kilogram, 2 hours after administration, vs 0.15M NaCl controls.

Consider `CCCCCCOC(=O)CNC(=O)[C@H](CS)NC(=O)CC[C@H](N)C(=O)O` [GSH mono-n-hexyl ester, n-Hexyl γ-L-glutamyl-L-cysteinylglycinate], for which, in test [1], the “survival after 7 days” value is “survived and were recovered clearly after 7 days”. In addition, in test [2], the “GSH level in the kidney” value is reported as “substantial elevation” and the “GSH level in the liver” value is “substantial elevation”.

Consider `CC(C)COC(=O)CNC(=O)[C@H](CS)NC(=O)CC[C@H](N)C(=O)O` [GSH monoisobutyl ester, Isobutyl γ-L-glutamyl-L-cysteinylglycinate], for which the “survival after 7 days” value in test [1] was “survived and were recovered clearly after 7 days”. In test [2], the “GSH level in the kidney” value is on record as “substantial elevation” and the “GSH level in the liver” value is recorded as “substantial elevation”.

Take `CC(C)OC(=O)CNC(=O)[C@H](CS)NC(=O)CC[C@H](N)C(=O)O` [GSH monoisopropyl ester, Isopropyl γ-L-glutamyl-L-cysteinylglycinate]: the “survival after 7 days” value in test [1] was “survived and were recovered clearly after 7 days”. In test [2], the “GSH level in the kidney” value is recorded as “substantial elevation” and the “GSH level in the liver” value is “substantial elevation”.

Regarding `N[C@@H](CCC(=O)N[C@@H](CS)C(=O)NCC(=O)O)C(=O)O` [GSH, L-γ-glutamyl-L-cysteinyl-glycine, reference compound], in test [3] (setting [6]), the “glutathione level of the kidney” value is “only a slight effect”. In test [2], the “GSH level in the kidney” value is reported as “slight elevation” and the “GSH level in the liver” value is recorded as “No elevation”.

As to `CCCCS(=N)(=O)CCC(N)C(=O)O` (centres unmarked) [buthionine sulfoximine], in test [4], the “glutathione levels of the liver and kidney after the inhibitor” value is recorded as “decreased to a very low value”.

For `CCOC(=O)CNC(=O)[C@H](CS)NC(=O)CC[C@H](N)C(=O)O` [glutathione monoethyl ester, L-γ-Glutamyl-L Cysteinyl Glycyl Ethyl Ester], the “effects on liver and kidney glutathione levels compared with glutathione monomethyl ester” value in test [3] (fasted mice, as Example 1) is “about the same”.

Regarding `COC(=O)CNC(=O)[C@H](CS)NC(=O)CC[C@H](N)C(=O)O` [glutathione monomethyl ester], in test [3] (setting [6]), the “glutathione level of the kidney” value is recorded as “increased substantially” and the “glutathione level of the liver” value is “increased substantially”. Besides, the “fatalities / survival at 7 days” value in test [5] is recorded as “no fatalities were observed”.
